Results: ChEMBL document CHEMBL1149484, “Comparison of the binding of 3-fluoromethyl-7-sulfonyl-1,2,3,4-tetrahydroisoquinolines with their isosteric sulfonamides to the active site of phenylethanolamine N-methyltransferase” (J Med Chem, 2006)

Test system: not listed separately
Test: Selectivity for human PNMT over rat Adrenergic alpha-2 receptor

SMILES	Selectivity ratio
c1ccc2c(c1)CCNC2 [1,2,3,4-TETRAHYDROISOQUINOLINE]	0.06

Biological target: T1, Phenylethanolamine N-methyltransferase (Homo sapiens, UniProt P11086)
T1 sequence (P11086 whole entry): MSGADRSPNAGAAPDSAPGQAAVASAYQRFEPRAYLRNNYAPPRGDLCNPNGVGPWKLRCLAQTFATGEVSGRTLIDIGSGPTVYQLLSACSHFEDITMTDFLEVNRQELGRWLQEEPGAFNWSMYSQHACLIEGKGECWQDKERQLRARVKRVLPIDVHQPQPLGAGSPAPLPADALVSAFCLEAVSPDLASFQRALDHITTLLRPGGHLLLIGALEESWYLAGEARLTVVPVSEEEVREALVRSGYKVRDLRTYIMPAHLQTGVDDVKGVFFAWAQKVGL
Test: Binding affinity to human PNMT expressed in Escherichia coli by radiochemical assay

SMILES	Ki [µM]
c1ccc2c(c1)CCNC2 [1,2,3,4-TETRAHYDROISOQUINOLINE]	5.8

Biological target: T2, Adrenergic receptor alpha-2 (Rattus norvegicus, UniProt P22086+P19328+P22909)
T2 sequence (P22086 whole entry): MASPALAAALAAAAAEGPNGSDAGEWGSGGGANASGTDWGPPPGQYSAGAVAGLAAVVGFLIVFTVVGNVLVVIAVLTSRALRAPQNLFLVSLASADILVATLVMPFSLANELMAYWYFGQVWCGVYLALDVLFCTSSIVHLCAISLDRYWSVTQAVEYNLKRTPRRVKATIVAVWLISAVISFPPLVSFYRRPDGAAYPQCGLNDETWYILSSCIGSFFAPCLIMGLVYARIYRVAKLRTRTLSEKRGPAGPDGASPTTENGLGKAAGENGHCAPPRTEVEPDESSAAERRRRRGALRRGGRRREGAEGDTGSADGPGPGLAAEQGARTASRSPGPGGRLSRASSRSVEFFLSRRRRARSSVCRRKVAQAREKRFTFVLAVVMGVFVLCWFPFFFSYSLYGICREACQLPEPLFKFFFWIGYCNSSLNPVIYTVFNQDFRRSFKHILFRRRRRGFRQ
T2 sequence (P19328 whole entry): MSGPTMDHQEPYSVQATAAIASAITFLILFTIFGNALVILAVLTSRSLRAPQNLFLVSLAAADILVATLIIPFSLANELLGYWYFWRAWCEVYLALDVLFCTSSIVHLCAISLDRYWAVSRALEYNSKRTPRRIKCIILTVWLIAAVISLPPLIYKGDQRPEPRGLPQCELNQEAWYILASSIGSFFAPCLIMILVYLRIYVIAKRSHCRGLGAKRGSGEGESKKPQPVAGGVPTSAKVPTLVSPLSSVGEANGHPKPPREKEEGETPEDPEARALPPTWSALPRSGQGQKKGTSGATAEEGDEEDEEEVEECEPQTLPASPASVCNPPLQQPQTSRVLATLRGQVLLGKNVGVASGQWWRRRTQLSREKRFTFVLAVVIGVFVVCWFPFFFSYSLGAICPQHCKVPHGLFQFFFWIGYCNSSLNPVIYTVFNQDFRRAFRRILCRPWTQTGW
T2 sequence (P22909 whole entry): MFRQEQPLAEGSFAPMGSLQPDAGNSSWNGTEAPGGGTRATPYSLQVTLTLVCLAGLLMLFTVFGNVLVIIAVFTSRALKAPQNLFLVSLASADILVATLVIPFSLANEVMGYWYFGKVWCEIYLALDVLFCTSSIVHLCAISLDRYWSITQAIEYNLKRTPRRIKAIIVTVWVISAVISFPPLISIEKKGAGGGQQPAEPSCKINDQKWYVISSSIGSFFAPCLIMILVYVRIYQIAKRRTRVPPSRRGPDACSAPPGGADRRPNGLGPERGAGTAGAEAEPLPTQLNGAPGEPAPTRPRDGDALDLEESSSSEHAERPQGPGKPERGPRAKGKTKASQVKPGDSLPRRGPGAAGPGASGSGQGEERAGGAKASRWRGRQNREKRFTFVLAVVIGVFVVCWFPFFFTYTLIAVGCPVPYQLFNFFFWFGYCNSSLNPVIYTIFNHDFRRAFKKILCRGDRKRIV
Test: Displacement of [3H]clonidine from Sprague-Dawley rat cortex adrenergic alpha 2 receptor

SMILES	Ki [µM]
O=S(=O)(CCC(F)(F)F)c1ccc2c(c1)CNC(CF)C2 (stereo not given)	> 1000
O=S(=O)(CCCC(F)(F)F)c1ccc2c(c1)CNC(CF)C2 (stereo not given)	> 1000
COCCCS(=O)(=O)c1ccc2c(c1)CNC(CF)C2 (stereo not given)	1200

Results, then the compound that gave them:

Ki [µM]	SMILES
> 1000	O=S(=O)(Cc1ccc(Cl)cc1)c1ccc2c(c1)CNC(CF)C2 (stereo not given)
690	CCCS(=O)(=O)c1ccc2c(c1)CNC(CF)C2 (stereo not given)
1100	CCS(=O)(=O)c1ccc2c(c1)CNC(CF)C2 (stereo not given)
540	CCCCS(=O)(=O)c1ccc2c(c1)CNC(CF)C2 (stereo not given)
740	O=S(=O)(CC(F)(F)F)c1ccc2c(c1)CNC(CF)C2 (stereo not given)
